Measurements as given in US20160024057A1, “INDAZOLE RETINOIC ACID RECEPTOR-RELATED ORPHAN RECEPTOR MODULATORS AND USES THEREOF” (INNOV17 LLC, priority 2014, published 2016).

Assays:
Type in all cases: cell-based
IL-17A = test: Human TH17 cytokine inhibition measured by ELISA: IL-17A; conditions: human CD4+ T cells under TH17-polarizing conditions, 3 days, supernatant ELISA
Description: (§1) Human TH17 Cytokine Inhibition as Measured by ELISA
(§2) Peripheral blood mononuclear cells (PBMCs) were sourced from freshly prepared leukocyte enriched plasma (buffy coat) from healthy donors (New York Blood Center). PBMCs were isolated by density gradient centrifugation using Ficoll-Paque™ PLUS (GE Healthcare). Human CD4+ T cells were seeded into 96-well plates (5×10^4 cells/well) and activated with plate-bound anti-human (h)-CD3 antibody and soluble h-aCD28 (both at 1 ug/ml; eBioscience) and differentiated into TH17 cells with 20 ng/mL h-IL-6, 5 ng/mL h-TGF-β1, 10 ng/mL h-IL-23 (eBioscience) and 10 ng/mL IL-1β (Miltenyi Biotec) in serum-free TexMACS Medium (Miltenyi Biotec) supplemented with 1% Penicillin/Streptomycin (Lonza) for 3 days. CD4+ T cells propagated under TH17-polarizing conditions were cultured in the presence or absence of various concentrations of compounds with a final concentration of 0.1% DMSO. Supernatants were collected and stored at −20° C. until assayed for IL-17A, IL-17F and IL-21 levels by “Ready-Set-Go” ELISA kits (eBioscience) as per manufacturer's instructions. Endpoint absorbance was read at 450 nm using a microplate reader (Perkin Elmer).

IL-17F = test: Human TH17 cytokine inhibition measured by ELISA: IL-17F; conditions: 72 h; human CD4+ T cells under TH17-polarizing conditions, 3 days, supernatant ELISA
Description: as §1, §2

IL-21 = test: Human TH17 cytokine inhibition measured by ELISA: IL-21; conditions: 72 h; human CD4+ T cells under TH17-polarizing conditions, 3 days, supernatant ELISA
Description: as §1, §2

IL-22 = test: Human TH17 cytokine inhibition measured by ELISA: IL-22; conditions: 72 h; human CD4+ T cells under TH17-polarizing conditions, 3 days, supernatant ELISA

Compound	IC50 (IL-17A; 72 h) [µM]	IC50 (IL-17F) [µM]	IC50 (IL-21) [µM]	IC50 (IL-22) [µM]	IC50 (IL-17A) [µM]
O=S(=O)(c1ccc(C(F)F)cc1)N1CCC(Cn2ncc3cc(-c4cn[nH]c4)ccc32)CC1 [Example 44, 1-((1-((4-(difluoromethyl)phenyl)sulfonyl)piperidin-4-yl)methyl)-5-(1H-pyrazol-4-yl)-1H-indazole]	< 10	< 10			
C[C@H]1C[C@@H](Cn2ncc3cc(-c4cn[nH]c4)ccc32)CN1C(=O)CCc1ccccc1 (racemic) [Example 46, rac.-cis-1-(4-((5-(1H-pyrazol-4-yl)-1H-indazol-1-yl)methyl)-2-methylpyrrolidin-1-yl)-3-phenylpropan-1-one]	< 10	< 10	< 10		
O=S(=O)(c1cccnc1)N1CCC(Cn2ncc3cc(-c4cn[nH]c4)ccc32)CC1 [Example 39, 5-(1H-pyrazol-4-yl)-1-((1-(pyridin-3-ylsulfonyl)piperidin-4-yl)methyl)-1H-indazole]	< 10	< 10			
O=C(CC1CCCCC1)N1CCC(Cn2ncc3cc(-c4cn[nH]c4)ccc32)CC1 [Example 4, 1-(4-((5-(1H-pyrazol-4-yl)-1H-indazol-1-yl)methyl)piperidin-1-yl)-2-cyclohexylethanone]	< 10	< 10	< 10		
O=C(CCc1ccccc1)N1CCC(Cn2ncc3cc(-c4cn[nH]c4)ccc32)CC1 [Example 3, 1-(4-((5-(1H-pyrazol-4-yl)-1H-indazol-1-yl)methyl)piperidin-1-yl)-3-phenylpropan-1-one]	< 10	< 10	< 10		
CC1(C)CC(Cn2ncc3cc(-c4cn[nH]c4)ccc32)CN1C(=O)Cc1ccccc1 (centres unmarked) [Example 19, 1-(4-((5-(1H-pyrazol-4-yl)-1H-indazol-1-yl)methyl)-2,2-dimethylpyrrolidin-1-yl)-2-phenylethanone]	< 10	< 10			
O=S(=O)(c1ccccc1)N1CCC(Cn2ncc3cc(-c4cn[nH]c4)ccc32)CC1 [Example 30, 1-((1-(phenylsulfonyl)piperidin-4-yl)methyl)-5-(1H-pyrazol-4-yl)-1H-indazole]	< 10	< 10	< 10	< 10	
N#Cc1cccc(S(=O)(=O)N2CCC(Cn3ncc4cc(-c5cn[nH]c5)ccc43)CC2)c1 [Example 43, 3-((4-((5-(1H-pyrazol-4-yl)-1H-indazol-1-yl)methyl)piperidin-1-yl)sulfonyl)benzonitrile]	< 10	< 10			
C[C@@H]1C[C@@H](Cn2ncc3cc(-c4cn[nH]c4)ccc32)CN1C(=O)CCc1ccccc1 (racemic) [Example 47, rac.-trans-1-(4-((5-(1H-pyrazol-4-yl)-1H-indazol-1-yl)methyl)-2-methylpyrrolidin-1-yl)-3-phenylpropan-1-one]	< 10	< 10	< 10		
Cc1ccc(S(=O)(=O)N2CCC(Cn3ncc4cc(-c5cn[nH]c5)ccc43)CC2)cc1 [Example 42, 5-(1H-pyrazol-4-yl)-1-((1-tosylpiperidin-4-yl)methyl)-1H-indazole]	< 10	< 10			
O=C(Cc1ccccc1)N1CCC(Cn2ncc3cc(-c4cn[nH]c4)ccc32)CC1 [Example 7, 1-(4-((5-(1H-pyrazol-4-yl)-1H-indazol-1-yl)methyl)piperidin-1-yl)-2-phenylethanone]	< 10	< 10	< 10		
CC1(C)CC(Cn2ncc3cc(-c4cn[nH]c4)ccc32)CN1S(=O)(=O)c1ccccc1 (centres unmarked) [Example 35, 1-((5,5-dimethyl-1-(phenylsulfonyl)pyrrolidin-3-yl)methyl)-5-(1H-pyrazol-4-yl)-1H-indazole]	< 10	< 10	< 10		
O=S(=O)(c1ccc(F)cc1)N1CCC(Cn2ncc3cc(-c4cn[nH]c4)ccc32)CC1 [Example 37, 1-((1-((4-fluorophenyl)sulfonyl)piperidin-4-yl)methyl)-5-(1H-pyrazol-4-yl)-1H-indazole]	< 10	< 10			
C[C@@H]1C[C@H](Cn2ncc3cc(-c4cn[nH]c4)ccc32)CN1S(=O)(=O)c1ccccc1 (racemic) [Example 33, rac.-cis-1-((-5-methyl-1-(phenylsulfonyl)pyrrolidin-3-yl)methyl)-5-(1H-pyrazol-4-yl)-1H-indazole]	< 10	< 10	< 10		
N#Cc1ccc(S(=O)(=O)N2CCC(Cn3ncc4cc(-c5cn[nH]c5)ccc43)CC2)cc1 [Example 38, 4-(4-((5-(1H-pyrazol-4-yl)-1H-indazol-1-yl)methyl)piperidin-1-ylsulfonyl)benzonitrile]	< 10	< 10			
O=S(=O)(Cc1ccccc1)N1CCC(Cn2ncc3cc(-c4cn[nH]c4)ccc32)CC1 [Example 32, 1-((1-(benzylsulfonyl)piperidin-4-yl)methyl)-5-(1H-pyrazol-4-yl)-1H-indazole]	< 10	< 10	< 10	< 10	
O=C(CCCc1ccccc1)N1CCC(Cn2ncc3cc(-c4cn[nH]c4)ccc32)CC1 [Example 8, 1-(4-((5-(1H-pyrazol-4-yl)-1H-indazol-1-yl)methyl)piperidin-1-yl)-4-phenylbutan-1-one]	< 10	< 10	< 10		
C[C@@H]1C[C@@H](Cn2ncc3cc(-c4cn[nH]c4)ccc32)CN1S(=O)(=O)c1ccccc1 (racemic) [Example 34, rac.-trans-1-((-5-methyl-1-(phenylsulfonyl)pyrrolidin-3-yl)methyl)-5-(1H-pyrazol-4-yl)-1H-indazole]					< 10
